The source made the active and inactive calls.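 How the source made its calls: active means binding inhibited by at least 50%, or stimulated by at least 50%, shown as inhibition of -50% or lower; inactive means the rest.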
Tests used:
Assay in all cases: off-target binding across receptor panel, profiling panel, selectivity assay for AVPR1a antagonist project, biochemical, Panlabs HitProfilingScreen (AID 743088)
[1] = system: Sodium Channel Site 2; details: Panlabs radioligand binding panel, 30 targets, at 10 µM, stronger effect = higher value
[2] = system: GABAA Central; details: Panlabs radioligand binding panel, 30 targets, at 10 µM, stronger effect = higher value
[3] = system: Transporter Norepinephrine (NET); details: Panlabs radioligand binding panel, 30 targets, at 10 µM, stronger effect = higher value
[4] = system: Prostanoid EP4; details: Panlabs radioligand binding panel, 30 targets, at 10 µM, stronger effect = higher value
[5] = system: Dopamine D2; details: Panlabs radioligand binding panel, 30 targets, at 10 µM, stronger effect = higher value
[6] = system: Sigma 1; details: Panlabs radioligand binding panel, 30 targets, at 10 µM, stronger effect = higher value
[7] = system: Adenosine A2A; details: Panlabs radioligand binding panel, 30 targets, at 10 µM, stronger effect = higher value
[8] = system: Alpha-2A adrenergic receptor (Homo sapiens) + Histamine H1 receptor (Homo sapiens) + Mu-type opioid receptor (Homo sapiens); details: Panlabs radioligand binding panel, 30 targets; at 10 µM; stronger effect = higher value
[9] = molecular target: Voltage-gated inwardly rectifying potassium channel KCNH2 (Homo sapiens) (UniProt Q12809); details: Panlabs radioligand binding panel, 30 targets; Potassium Channel hERG; at 10 µM; stronger effect = higher value
Voltage-gated inwardly rectifying potassium channel KCNH2 (Homo sapiens), sequence (Q12809 whole entry, looked up): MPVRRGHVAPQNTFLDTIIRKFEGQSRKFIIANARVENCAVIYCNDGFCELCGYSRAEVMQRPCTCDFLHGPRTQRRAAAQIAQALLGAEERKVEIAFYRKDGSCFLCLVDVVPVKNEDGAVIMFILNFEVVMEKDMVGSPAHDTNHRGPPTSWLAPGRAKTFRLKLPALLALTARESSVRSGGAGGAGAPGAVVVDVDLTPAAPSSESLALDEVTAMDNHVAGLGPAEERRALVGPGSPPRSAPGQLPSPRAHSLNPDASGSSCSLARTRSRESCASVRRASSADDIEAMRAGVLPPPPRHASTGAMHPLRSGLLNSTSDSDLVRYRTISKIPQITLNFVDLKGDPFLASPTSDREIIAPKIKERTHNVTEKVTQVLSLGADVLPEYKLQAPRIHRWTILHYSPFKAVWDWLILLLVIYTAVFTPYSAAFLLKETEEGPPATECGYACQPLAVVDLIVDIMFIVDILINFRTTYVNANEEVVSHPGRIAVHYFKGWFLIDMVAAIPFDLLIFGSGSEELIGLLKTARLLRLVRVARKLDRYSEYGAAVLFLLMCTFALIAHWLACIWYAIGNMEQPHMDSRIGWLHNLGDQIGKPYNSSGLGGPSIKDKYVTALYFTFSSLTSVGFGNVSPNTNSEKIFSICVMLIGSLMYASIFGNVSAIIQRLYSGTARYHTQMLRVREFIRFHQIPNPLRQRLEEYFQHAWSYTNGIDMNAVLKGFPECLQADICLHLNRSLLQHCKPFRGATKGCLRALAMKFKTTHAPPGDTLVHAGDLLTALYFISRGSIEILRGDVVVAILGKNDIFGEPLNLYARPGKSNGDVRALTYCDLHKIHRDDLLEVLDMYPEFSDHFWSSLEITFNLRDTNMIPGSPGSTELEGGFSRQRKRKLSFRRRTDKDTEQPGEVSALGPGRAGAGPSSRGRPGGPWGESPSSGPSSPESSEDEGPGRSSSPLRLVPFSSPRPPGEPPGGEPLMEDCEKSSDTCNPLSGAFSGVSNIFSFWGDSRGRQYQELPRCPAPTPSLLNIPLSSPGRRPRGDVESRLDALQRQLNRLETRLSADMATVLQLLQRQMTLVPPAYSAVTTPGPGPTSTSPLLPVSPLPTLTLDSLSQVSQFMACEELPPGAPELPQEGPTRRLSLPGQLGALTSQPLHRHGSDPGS

[10] = system: Opiate mu (OP3, MOP); details: Panlabs radioligand binding panel, 30 targets, at 10 µM, stronger effect = higher value
[11] = molecular target: D(1A) dopamine receptor (Homo sapiens) (UniProt P21728); details: Panlabs radioligand binding panel, 30 targets; Dopamine D1; at 10 µM; stronger effect = higher value
D(1A) dopamine receptor (Homo sapiens), sequence (P21728 whole entry, looked up): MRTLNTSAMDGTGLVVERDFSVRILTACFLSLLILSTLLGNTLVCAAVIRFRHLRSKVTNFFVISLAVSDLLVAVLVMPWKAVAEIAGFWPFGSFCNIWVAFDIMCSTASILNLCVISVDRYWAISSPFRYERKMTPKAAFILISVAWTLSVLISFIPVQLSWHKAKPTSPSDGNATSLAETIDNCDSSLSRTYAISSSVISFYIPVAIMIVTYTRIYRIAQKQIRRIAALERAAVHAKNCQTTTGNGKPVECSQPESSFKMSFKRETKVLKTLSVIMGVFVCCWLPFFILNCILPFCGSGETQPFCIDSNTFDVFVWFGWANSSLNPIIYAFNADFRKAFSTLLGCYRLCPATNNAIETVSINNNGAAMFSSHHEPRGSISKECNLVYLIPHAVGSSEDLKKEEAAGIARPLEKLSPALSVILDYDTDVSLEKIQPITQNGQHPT

[12] = system: Adrenergic alpha1B; details: Panlabs radioligand binding panel, 30 targets, at 10 µM, stronger effect = higher value
[13] = system: Calcium Channel L-Type; details: Panlabs radioligand binding panel, 30 targets, Dihydropyridine site, at 10 µM, stronger effect = higher value
[14] = molecular target: Muscarinic acetylcholine receptor M3 (Homo sapiens) (UniProt P20309); details: Panlabs radioligand binding panel, 30 targets, at 10 µM, stronger effect = higher value
Muscarinic acetylcholine receptor M3 (Homo sapiens), sequence (P20309 whole entry, looked up): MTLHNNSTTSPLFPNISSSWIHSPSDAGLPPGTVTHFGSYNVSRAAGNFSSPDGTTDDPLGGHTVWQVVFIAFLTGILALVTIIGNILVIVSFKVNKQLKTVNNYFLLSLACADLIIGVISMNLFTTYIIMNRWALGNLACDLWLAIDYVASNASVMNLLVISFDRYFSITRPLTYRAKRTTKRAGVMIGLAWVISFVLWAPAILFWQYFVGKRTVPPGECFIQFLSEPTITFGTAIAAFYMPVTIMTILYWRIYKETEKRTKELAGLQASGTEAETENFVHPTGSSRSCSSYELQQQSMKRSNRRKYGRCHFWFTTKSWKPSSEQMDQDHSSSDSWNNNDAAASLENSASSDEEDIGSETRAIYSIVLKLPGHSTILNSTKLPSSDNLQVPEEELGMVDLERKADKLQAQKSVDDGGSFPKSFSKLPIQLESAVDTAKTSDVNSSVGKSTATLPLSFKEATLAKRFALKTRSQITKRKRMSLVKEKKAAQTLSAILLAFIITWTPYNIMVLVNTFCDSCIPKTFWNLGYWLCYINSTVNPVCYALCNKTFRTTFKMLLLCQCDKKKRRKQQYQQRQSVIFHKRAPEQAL

[15] = system: Adrenergic beta1; details: Panlabs radioligand binding panel, 30 targets, at 10 µM, stronger effect = higher value
[16] = system: Adenosine A1; details: Panlabs radioligand binding panel, 30 targets, at 10 µM, stronger effect = higher value
[17] = system: Cannabinoid CB1; details: Panlabs radioligand binding panel, 30 targets, at 10 µM, stronger effect = higher value
[18] = molecular target: Alpha-2A adrenergic receptor (Homo sapiens) (UniProt P08913); details: Panlabs radioligand binding panel, 30 targets; Adrenergic alpha2A; at 10 µM; stronger effect = higher value
Alpha-2A adrenergic receptor (Homo sapiens), sequence (P08913 whole entry, looked up): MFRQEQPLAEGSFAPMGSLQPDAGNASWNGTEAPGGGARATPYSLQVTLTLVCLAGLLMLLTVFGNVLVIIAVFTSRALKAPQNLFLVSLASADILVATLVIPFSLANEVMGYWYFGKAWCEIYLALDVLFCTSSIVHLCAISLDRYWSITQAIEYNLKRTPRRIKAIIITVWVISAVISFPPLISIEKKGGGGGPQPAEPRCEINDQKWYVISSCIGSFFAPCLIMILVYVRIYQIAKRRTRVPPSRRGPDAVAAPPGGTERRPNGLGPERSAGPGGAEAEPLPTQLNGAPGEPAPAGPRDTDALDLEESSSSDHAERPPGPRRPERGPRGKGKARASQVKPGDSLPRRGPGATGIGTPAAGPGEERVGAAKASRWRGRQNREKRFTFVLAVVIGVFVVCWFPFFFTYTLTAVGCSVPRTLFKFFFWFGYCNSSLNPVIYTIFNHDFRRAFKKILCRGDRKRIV

[19] = molecular target: Beta-2 adrenergic receptor (Homo sapiens) (UniProt P07550); details: Panlabs radioligand binding panel, 30 targets; Adrenergic beta2; at 10 µM; stronger effect = higher value
Beta-2 adrenergic receptor (Homo sapiens), sequence (P07550 whole entry, looked up): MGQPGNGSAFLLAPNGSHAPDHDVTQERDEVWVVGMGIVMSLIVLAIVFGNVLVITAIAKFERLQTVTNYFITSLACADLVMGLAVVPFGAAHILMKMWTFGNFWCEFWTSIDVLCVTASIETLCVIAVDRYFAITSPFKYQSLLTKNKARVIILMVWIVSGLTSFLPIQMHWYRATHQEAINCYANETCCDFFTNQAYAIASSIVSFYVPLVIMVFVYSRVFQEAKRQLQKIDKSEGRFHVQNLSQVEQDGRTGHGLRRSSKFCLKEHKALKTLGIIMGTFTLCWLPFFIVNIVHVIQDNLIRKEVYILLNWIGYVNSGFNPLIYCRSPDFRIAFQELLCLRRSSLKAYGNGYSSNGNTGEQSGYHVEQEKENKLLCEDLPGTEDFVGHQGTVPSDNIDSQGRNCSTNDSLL

[20] = system: Nicotinic Acetylcholine; details: Panlabs radioligand binding panel, 30 targets, at 10 µM, stronger effect = higher value
[21] = system: Histamine H1; details: Panlabs radioligand binding panel, 30 targets, at 10 µM, stronger effect = higher value
[22] = system: Adrenergic alpha1A; details: Panlabs radioligand binding panel, 30 targets, at 10 µM, stronger effect = higher value
[23] = system: Glutamate NMDA; details: Panlabs radioligand binding panel, 30 targets, Phencyclidine site, at 10 µM, stronger effect = higher value
[24] = molecular target: 5-hydroxytryptamine receptor 2B (Homo sapiens) (UniProt P41595); details: Panlabs radioligand binding panel, 30 targets; Serotonin (5-Hydroxytryptamine) 5-HT2B; at 10 µM; stronger effect = higher value
5-hydroxytryptamine receptor 2B (Homo sapiens), sequence (P41595 whole entry, looked up): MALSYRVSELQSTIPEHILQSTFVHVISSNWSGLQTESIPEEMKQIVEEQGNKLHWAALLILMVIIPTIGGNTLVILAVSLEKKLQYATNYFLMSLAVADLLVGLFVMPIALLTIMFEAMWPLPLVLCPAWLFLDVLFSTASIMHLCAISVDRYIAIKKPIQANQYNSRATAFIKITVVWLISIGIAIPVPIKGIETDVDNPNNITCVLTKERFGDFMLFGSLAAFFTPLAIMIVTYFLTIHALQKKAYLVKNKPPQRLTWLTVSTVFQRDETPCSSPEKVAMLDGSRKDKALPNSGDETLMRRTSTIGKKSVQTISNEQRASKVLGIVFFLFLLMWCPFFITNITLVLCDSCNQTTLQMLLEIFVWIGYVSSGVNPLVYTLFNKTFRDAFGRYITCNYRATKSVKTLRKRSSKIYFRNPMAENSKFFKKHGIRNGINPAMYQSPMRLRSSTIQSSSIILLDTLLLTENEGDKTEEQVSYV

[25] = molecular target: Muscarinic acetylcholine receptor M2 (Homo sapiens) (UniProt P08172); details: Panlabs radioligand binding panel, 30 targets, at 10 µM, stronger effect = higher value
Muscarinic acetylcholine receptor M2 (Homo sapiens), sequence (P08172 whole entry, looked up): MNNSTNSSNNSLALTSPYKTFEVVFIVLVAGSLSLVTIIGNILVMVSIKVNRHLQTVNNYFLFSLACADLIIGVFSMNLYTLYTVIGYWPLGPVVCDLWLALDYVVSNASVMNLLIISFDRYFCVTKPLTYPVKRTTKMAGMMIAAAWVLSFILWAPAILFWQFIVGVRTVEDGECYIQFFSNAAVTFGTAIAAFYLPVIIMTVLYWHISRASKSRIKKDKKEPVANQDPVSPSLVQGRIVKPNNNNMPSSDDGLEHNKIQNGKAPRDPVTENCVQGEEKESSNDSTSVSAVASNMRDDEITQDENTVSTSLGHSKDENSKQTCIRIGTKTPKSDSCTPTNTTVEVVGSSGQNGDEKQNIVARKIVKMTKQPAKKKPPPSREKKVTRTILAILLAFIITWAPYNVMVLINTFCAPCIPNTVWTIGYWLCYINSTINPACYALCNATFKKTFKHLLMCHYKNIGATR

With `O=C(C1CCN(c2ccc(Cl)cn2)CC1)N(CC1CC1)c1ccc(Cl)cc1` the inhibition of binding [1] was 35% (inactive), the inhibition of binding ([2]; Flunitrazepam site) was -6% (inactive) and the inhibition of binding ([2]; Muscimol site) was 7% (inactive). For the same compound, the inhibition of binding [3] was 47% (inactive), the inhibition of binding [4] was 31% (inactive) and the inhibition of binding [5] was 1% (inactive). For the same compound, the inhibition of binding [6] was 61%, the inhibition of binding [7] was 7% (inactive) and the inhibition of binding [8] was 6% (inactive). The inhibition of binding [9] was 22% (inactive), the inhibition of binding [10] was 23% (inactive) and the inhibition of binding [11] was -6% (inactive). For the same compound, the inhibition of binding [12] was -15% (inactive), the inhibition of binding [13] was 44% (inactive) and the inhibition of binding [14] was -2% (inactive). The inhibition of binding [15] was 12% (inactive), the inhibition of binding [16] was -4% (inactive) and the inhibition of binding [17] was 48% (inactive). For the same compound, the inhibition of binding [18] was 8% (inactive), the inhibition of binding [19] was 5% (inactive) and the inhibition of binding [20] was -15% (inactive). For the same compound, the inhibition of binding [21] was 12% (inactive), the inhibition of binding [22] was 23% (inactive) and the inhibition of binding [23] was 5% (inactive). The inhibition of binding [24] was 36% (inactive) and the inhibition of binding [25] was -5% (inactive).

From PubChem BioAssay AID743088 (The Scripps Research Institute Molecular Screening Center, 2013)
